# How the values were obtained:
# [1] = target: T1, CB1 (Homo sapiens, UniProt P21554); assay: Eurofins radioligand binding panel; conditions: agonist radioligand
# T1 construct: Eurofins (panel run as a service)
# Description: (§1) Table S1. Eurofins Lead Profiling Screen Data
# (§2) This is a radioligand binding panel of 80 targets including GPCRs, ion channels, transporters and nuclear hormones. Biochemical assay results are presented as the percent inhibition of specific […]
# (§3) Results showing an inhibition or stimulation higher than 50% are considered to represent significant effect and are highlighted […]
# (§4) Target / Protein Species % Inhibition at 10 […]
# [2] = target: T2, CCK1 (CCKA) (Homo sapiens, UniProt P32238); assay: Eurofins radioligand binding panel; conditions: agonist radioligand
# T2 construct: Eurofins (panel run as a service)
# Description: as §1, §2, §3, §4
# [3] = tested on: BZD (central); assay: Eurofins radioligand binding panel; conditions: agonist radioligand
# Description: as §1, §2, §3, §4
# [4] = target: T3, B2 (Homo sapiens, UniProt P30411); assay: Eurofins radioligand binding panel; conditions: agonist radioligand
# T3 construct: Eurofins (panel run as a service)
# Description: as §1, §2, §3, §4
# [5] = target: T4, Adenosine A3 (Homo sapiens, UniProt P0DMS8); assay: Eurofins radioligand binding panel; conditions: agonist radioligand
# T4 construct: Eurofins
# Description: as §1, §2, §3, §4
# [6] = target: T5, AT1 (Homo sapiens, UniProt P30556); assay: Eurofins radioligand binding panel; conditions: antagonist radioligand
# T5 construct: Eurofins
# Description: as §1, §2, §3, §4
# [7] = target: T6, CGRP (Homo sapiens, UniProt O60894+Q16602); assay: Eurofins radioligand binding panel; conditions: agonist radioligand
# T6 construct: Eurofins (panel run as a service)
# Description: as §1, §2, §3, §4
# [8] = target: T7, BZD (peripheral) (Rattus norvegicus, UniProt P16257); assay: Eurofins radioligand binding panel; conditions: antagonist radioligand
# T7 construct: Eurofins (panel run as a service)
# Description: as §1, §2, §3, §4
# [9] = target: T8, Adrenergic beta 1 (Homo sapiens, UniProt P08588); assay: Eurofins radioligand binding panel; conditions: agonist radioligand
# T8 construct: Eurofins
# Description: as §1, §2, §3, §4
# [10] = target: T9, AT2 (Homo sapiens, UniProt P50052); assay: Eurofins radioligand binding panel; conditions: agonist radioligand
# T9 construct: Eurofins (panel run as a service)
# Description: as §1, §2, §3, §4
# [11] = target: T10, Adrenergic beta 2 (Homo sapiens, UniProt P07550); assay: Eurofins radioligand binding panel; conditions: antagonist radioligand
# T10 construct: Eurofins
# Description: as §1, §2, §3, §4
# [12] = target: T11, Adenosine A2A (Homo sapiens, UniProt P29274); assay: Eurofins radioligand binding panel; conditions: agonist radioligand
# T11 construct: Eurofins
# Description: as §1, §2, §3, §4
# [13] = tested on: 4-strain ± S9; assay: Ames test
# [14] = tested on: C57BL/6JRj mice; assay: 40 Hz ASSR, MK-801 induced deficit; format: in vivo; conditions: mouse
# Description: We have also employed here event-related potentials (ERPs) and auditory-evoked oscillations, which serve as critical translational biomarkers, to assess the impact of our investigational drug on sensory processing and cognitive functions, providing valuable data on its potential efficacy in treating disorders like schizophrenia. Detailed description of the methodology, setup specifications and recording procedure and analysis of the 40 Hz auditory steady-state response (ASSR) protocol can be found in Schuelert et al.[27] […] Reduced entrainment of gamma oscillation reflects abnormalities in basic sensory registration and processing but is also associated with impaired higher cognitive functions.[32] ASSR can also be reliably impaired preclinically by different NMDA receptor antagonists.[33],[34] […] Abnormalities associated with the filtering or “gating” of sensory information are among the most consistent findings in schizophrenia research.[35] N100 gating deficits also correlated with negative-cognitive deficits dimensions of schizophrenia[36] and can be modeled preclinically with NMDA receptor antagonists.[37]19d reversed N1 sensory gating deficit induced by MK-801 with the highest dose of 10 mg/kg (Figure 12B). Mean plasma exposures in satellite mice after subcutaneous administration of 19d at 0.8, 4, and 10 mg/kg were 187, 1207, and 2490 nM, respectively.
# The mGlu2/3 selective agonist LY379268 was used here as a positive control, applied also s.c. at 3 mg/kg dose. […] Data are shown as mean ± SEM (n = 13–19 for each treatment group). *P < 0.05, **P < 0.01, ***P < 0.005 compared with vehicle; #P < 0.05, ##P < 0.01 compared with MK-801. […]
# Mice were placed in a plexiglass cage in an attenuated sound box and allowed to adapt to their environment for 20 min before subcutaneous administration of VU6024578 0.8, 4, and 10 mg/kg or vehicle (20% HP-β-CD in water). […] An infrared sensor on the Neurologger recorded the infrared trigger signals and trigger signals were saved in an individual trigger channel. […]
# T5 sequence (P30556 whole entry): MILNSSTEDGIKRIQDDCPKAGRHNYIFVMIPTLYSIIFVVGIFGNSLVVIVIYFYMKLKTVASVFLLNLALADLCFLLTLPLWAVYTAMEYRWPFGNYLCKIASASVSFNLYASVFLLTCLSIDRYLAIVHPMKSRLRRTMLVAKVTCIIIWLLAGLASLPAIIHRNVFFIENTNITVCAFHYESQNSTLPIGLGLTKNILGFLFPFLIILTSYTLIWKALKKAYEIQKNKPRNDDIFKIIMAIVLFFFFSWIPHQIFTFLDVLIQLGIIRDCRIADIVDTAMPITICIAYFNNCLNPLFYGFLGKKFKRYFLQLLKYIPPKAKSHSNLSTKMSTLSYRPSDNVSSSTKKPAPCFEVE
# T4 sequence (P0DMS8 whole entry): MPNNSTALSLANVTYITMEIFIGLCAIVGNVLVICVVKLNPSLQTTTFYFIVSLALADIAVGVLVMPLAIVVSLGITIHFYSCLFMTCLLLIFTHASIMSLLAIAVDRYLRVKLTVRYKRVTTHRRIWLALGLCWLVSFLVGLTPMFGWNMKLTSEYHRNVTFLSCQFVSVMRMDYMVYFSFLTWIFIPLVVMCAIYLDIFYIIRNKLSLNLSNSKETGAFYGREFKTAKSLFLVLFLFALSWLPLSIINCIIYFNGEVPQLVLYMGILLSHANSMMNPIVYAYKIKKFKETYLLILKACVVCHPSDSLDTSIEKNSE
# T10 sequence (P07550 whole entry): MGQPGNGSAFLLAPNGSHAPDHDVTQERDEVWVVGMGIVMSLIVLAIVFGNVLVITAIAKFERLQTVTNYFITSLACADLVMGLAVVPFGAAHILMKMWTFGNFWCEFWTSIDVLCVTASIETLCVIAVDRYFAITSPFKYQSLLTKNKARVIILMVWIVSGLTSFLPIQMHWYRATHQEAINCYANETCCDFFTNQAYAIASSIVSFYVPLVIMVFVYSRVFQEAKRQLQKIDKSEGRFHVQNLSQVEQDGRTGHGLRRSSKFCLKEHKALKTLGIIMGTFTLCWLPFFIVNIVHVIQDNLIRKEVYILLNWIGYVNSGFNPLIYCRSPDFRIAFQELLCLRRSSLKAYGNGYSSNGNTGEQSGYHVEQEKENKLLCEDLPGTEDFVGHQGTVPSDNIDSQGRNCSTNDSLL
# T8 sequence (P08588 whole entry): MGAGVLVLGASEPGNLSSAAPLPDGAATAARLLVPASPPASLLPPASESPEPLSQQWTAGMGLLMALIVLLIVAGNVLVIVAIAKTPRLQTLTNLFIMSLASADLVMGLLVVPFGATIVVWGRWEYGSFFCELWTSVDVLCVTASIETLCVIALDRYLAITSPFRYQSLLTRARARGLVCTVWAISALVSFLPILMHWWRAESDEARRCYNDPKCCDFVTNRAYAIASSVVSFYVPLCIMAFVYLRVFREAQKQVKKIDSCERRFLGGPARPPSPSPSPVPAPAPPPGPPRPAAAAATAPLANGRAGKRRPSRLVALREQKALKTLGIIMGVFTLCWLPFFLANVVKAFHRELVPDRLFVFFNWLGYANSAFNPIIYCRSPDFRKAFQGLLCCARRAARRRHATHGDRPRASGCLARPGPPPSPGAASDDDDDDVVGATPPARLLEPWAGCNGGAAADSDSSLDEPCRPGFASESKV
# T2 sequence (P32238 whole entry): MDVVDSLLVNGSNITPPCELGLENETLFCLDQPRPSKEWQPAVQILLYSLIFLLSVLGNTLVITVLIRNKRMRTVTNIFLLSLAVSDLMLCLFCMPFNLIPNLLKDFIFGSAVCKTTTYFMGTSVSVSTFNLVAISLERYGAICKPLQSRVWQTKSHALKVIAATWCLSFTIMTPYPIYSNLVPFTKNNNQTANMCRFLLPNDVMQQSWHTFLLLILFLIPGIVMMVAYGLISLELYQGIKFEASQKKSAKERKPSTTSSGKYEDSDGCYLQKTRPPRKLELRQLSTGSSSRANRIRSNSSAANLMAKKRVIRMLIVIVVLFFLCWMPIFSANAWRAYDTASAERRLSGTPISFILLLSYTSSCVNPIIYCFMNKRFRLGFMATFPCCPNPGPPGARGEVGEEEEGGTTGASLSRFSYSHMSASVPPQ
# T11 sequence (P29274 whole entry): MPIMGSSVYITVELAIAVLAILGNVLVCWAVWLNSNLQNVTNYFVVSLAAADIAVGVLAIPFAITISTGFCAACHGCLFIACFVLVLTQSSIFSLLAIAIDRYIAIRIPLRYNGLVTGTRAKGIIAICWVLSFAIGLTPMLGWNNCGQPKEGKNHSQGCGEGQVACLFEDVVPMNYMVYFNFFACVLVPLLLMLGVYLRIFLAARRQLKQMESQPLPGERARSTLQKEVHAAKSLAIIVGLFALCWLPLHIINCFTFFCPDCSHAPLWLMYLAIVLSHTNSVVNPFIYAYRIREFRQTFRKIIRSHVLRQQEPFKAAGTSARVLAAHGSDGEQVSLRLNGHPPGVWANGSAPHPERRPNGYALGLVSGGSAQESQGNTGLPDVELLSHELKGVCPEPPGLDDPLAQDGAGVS
# T1 sequence (P21554 whole entry): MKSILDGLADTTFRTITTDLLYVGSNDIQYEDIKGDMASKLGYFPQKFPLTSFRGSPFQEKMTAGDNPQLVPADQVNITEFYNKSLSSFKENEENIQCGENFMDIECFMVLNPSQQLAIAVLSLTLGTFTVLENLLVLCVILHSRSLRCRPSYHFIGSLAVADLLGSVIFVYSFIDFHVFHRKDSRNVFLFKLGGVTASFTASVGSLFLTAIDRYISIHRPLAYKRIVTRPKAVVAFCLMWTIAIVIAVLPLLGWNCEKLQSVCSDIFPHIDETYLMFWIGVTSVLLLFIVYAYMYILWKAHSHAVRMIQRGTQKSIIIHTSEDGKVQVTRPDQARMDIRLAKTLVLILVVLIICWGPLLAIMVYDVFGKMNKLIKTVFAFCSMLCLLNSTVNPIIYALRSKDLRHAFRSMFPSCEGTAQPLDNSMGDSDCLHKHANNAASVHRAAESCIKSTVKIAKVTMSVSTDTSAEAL
# T9 sequence (P50052 whole entry): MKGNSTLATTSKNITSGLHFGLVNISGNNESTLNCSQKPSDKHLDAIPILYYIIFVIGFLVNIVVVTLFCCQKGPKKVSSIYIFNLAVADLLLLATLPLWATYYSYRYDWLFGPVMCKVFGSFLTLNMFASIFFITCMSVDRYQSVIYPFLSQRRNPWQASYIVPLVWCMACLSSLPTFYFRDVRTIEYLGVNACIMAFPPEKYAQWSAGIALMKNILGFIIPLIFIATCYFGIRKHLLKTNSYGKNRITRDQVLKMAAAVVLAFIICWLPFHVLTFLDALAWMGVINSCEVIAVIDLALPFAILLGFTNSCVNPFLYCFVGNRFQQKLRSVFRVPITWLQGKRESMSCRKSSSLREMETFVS
# T6 sequence (Q16602 23-461): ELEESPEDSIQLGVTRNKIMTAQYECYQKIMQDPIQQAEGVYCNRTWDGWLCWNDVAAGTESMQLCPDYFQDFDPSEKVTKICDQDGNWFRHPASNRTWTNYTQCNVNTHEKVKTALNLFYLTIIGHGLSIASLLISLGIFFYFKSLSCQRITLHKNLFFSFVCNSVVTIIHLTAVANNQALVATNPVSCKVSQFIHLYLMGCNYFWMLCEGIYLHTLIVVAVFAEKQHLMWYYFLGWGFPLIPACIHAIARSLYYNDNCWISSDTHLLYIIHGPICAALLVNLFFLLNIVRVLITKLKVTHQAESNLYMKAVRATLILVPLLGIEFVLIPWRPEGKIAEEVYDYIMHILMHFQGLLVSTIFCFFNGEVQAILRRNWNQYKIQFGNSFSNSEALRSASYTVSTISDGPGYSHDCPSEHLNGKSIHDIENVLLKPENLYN
# T6 sequence (O60894 27-148 partner): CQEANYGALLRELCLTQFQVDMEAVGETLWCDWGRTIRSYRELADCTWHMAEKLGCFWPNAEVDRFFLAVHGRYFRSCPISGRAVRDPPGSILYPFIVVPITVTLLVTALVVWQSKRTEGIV
# T3 sequence (P30411 whole entry): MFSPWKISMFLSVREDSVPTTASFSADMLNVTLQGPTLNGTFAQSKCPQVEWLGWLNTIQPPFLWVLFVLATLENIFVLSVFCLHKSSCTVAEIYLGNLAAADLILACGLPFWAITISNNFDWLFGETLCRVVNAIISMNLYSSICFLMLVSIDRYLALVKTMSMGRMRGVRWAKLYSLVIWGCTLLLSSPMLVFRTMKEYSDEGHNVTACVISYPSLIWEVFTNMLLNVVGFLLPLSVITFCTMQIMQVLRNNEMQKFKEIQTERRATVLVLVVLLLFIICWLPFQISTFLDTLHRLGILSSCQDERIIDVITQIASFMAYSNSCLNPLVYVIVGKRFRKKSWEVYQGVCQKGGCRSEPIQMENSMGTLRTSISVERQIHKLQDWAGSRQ
smiles,measurement,setting,value
"Cn1nc(-c2ccnn2C)cc1CNC(=O)c1cc(-c2ccco2)ccc1Cl [Compound 19d, 2-Chloro-N-((1,2′-dimethyl-1H,2’H-[3,3′-bipyrazol]-5-yl)methyl)-5-(furan-2-yl)benzamide]",inhibition at 10 µM,[1],0%
same,inhibition at 10 µM,[2],7%
same,% Inhibition at 10 µM,[3],5%
same,inhibition at 10 µM,[4],7%
same,inhibition at 10 µM,[5],23%
same,inhibition at 10 µM,[6],-1%
same,inhibition at 10 µM,[7],1%
same,inhibition at 10 µM,[8],96%
same,inhibition at 10 µM,[9],1%
same,inhibition at 10 µM,[10],2%
same,inhibition at 10 µM,[11],-1%
same,inhibition at 10 µM,[12],-1%
same,Ames test result,[13],negative
same,reversal of MK-801 deficit in 40 Hz ASSR intertrial coherence (PFC),[14]; 0.8 mg/kg s.c.,no significant effect
same,reversal of MK-801 deficit in 40 Hz ASSR intertrial coherence (PFC),[14]; 4 mg/kg s.c.,complete reversal
same,reversal of MK-801 deficit in 40 Hz ASSR intertrial coherence (PFC),[14]; 10 mg/kg s.c.,complete reversal

# — PMC11684029, “Discovery of VU6024578/BI02982816: An mGlu1 Positive Allosteric Modulator with Efficacy in Preclinical Antipsychotic and Cognition Models” (Journal of Medicinal Chemistry, 2024)
